Assay results reported in patent US6379652B1, “Oral compositions for reducing mouth odors” (Colgate Palmolive Company, priority 2000, dated 2002).

Tested on: F. nucleatum
Assay: MIC assay for bactericidal activity (microtiter format)
Format: cell-based
Set-up: MIC Value: unit not given here
Settings: for MIC Value: individual flavors, 1% by weight solution in ethanol, F. nucleatum, lower = more effective; for bactericidal activity against F. nucleatum (in words): summary of Table I
Procedure: A 1% by weight solution in ethanol of a series of individual essential oil flavors were prepared and evaluated in an MIC assay for bactericidal activity against F. nucleatum. The bacterial strain F. nucleatum is implicated in the occurrence of oral malodor.
The bacterial strains of F. nucleatum were grown […] in thioglycolate broth for 48 hours at 37° C. The optical density at 610 nm was adjusted to between 0.1 to 0.2 prior the MIC determination.
MIC determinations were performed using the microtiter format according to standard procedures (Manual of clinical Microbiology, 1995).
The procedure of Example 1 was repeated except combinations of various flavor compounds were evaluated for antibacterial efficacy via the MIC assay.

SMILES	MIC Value	bactericidal activity against F. nucleatum (in words)
CC=Cc1ccc(OC)cc1 [Anethol]	500	
O=C/C=C/c1ccccc1 [Cinnamic aldehyde]	125	good bactericidal activity
CC12CCC(CC1)C(C)(C)O2 [Eucalyptol]	500	
C=CCc1ccc(O)c(OC)c1 [Eugenol]	250	good bactericidal activity
CC(C)[C@@H]1CC[C@@H](C)C[C@H]1O [L-menthol]	500	
Cc1ccc(C(C)C)c(O)c1 [Thymol]	125	good bactericidal activity
